Results published in patent US20170094972A1, “Compounds and Compositions Having Knock-Down Activity Against Insect Pests” (priority 2015, published 2017).

Key:
Format in all cases: in vivo
Anopheles stephensi [1] = assay: 6 well plate test, knockdown after 1 hour and mortality after 24 and 48 hours; parameters: KD: unit not given here; details: for KD: after 1 hour
Description: The individual wells of six (6) well tissue culture plates were treated with […] of an ethanol solution containing a test compound at a defined concentration. Once the deposits were dry, ten non-blood fed adult female Anopheles stephensi (between two to five day old) were added to each well, and sustained with a 10% sucrose solution in a cotton wool plug. Assessment of the knockdown after 1 hour (Tables B1-B10), and mortality after 24 and 48 hours (Tables B1-B4) was carried out.
In case of multiple tests, the mean value is reported.

Aedes aegypti = assay: 12 well plate knockdown test; details: 1 h, read-out: Aedes aegypti 1 hour % KD; for pest or weed control at 0.2 ppm: Rate 0.2 PPM; for pest or weed control at 2 ppm: Rate 2 PPM; for pest or weed control at 20 ppm: Rate 20 PPM; for pest or weed control at 200 ppm: Rate 200 PPM
Description: (§1) The individual wells of a twelve (12) well tissue culture plates were treated with 100 μl of an ethanol solution containing a test compound at a defined concentration. Once the deposits were dry, five non-blood fed adult female Aedes aegypti or Anopheles stephensi (between two to five day old) were added to each well, and sustained with a 10% sucrose solution in a cotton wool plug. Assessment of the knockdown after 1 hour was carried out. Where multiple replicates of a treatment have been undertaken, the mean of those replicates is reported.

Anopheles stephensi [2] = assay: 12 well plate knockdown test; details: 1 h, read-out: Anopheles stephensi 1 hour % KD; for pest or weed control at 0.2 ppm: Rate 0.2 PPM; for pest or weed control at 2 ppm: Rate 2 PPM; for pest or weed control at 20 ppm: Rate 20 PPM; for pest or weed control at 200 ppm: Rate 200 PPM
Description: as §1

## CNC(=O)c1cc(Cl)cc(C)c1NC(=O)c1cc(Br)nn1-c1ncccc1Cl [Chlorantraniliprole]
Anopheles stephensi [1]; Table B9, 12.5 ppm
  knockdown after 1 hour, Alone: 0
Anopheles stephensi [1]; Table B9, 25 ppm
  knockdown after 1 hour, Alone: 0
Anopheles stephensi [1]; Table B9, 50 ppm
  knockdown after 1 hour, Alone: 0
Anopheles stephensi [1]; Table B9, 100 ppm
  knockdown after 1 hour, Alone: 20
Anopheles stephensi [1]; Table B9, 200 ppm
  knockdown after 1 hour, Alone: 40

## O=C(NC(=O)c1cnccc1C(F)(F)F)c1cccs1 [I.13]
Aedes aegypti
  pest or weed control at 0.2 ppm: 0%
  pest or weed control at 2 ppm: 100%
  pest or weed control at 20 ppm: 100%
  pest or weed control at 200 ppm: 100%
Anopheles stephensi [2]
  pest or weed control at 0.2 ppm: 0%
  pest or weed control at 2 ppm: 60%
  pest or weed control at 20 ppm: 100%
  pest or weed control at 200 ppm: 100%

## CNC(=O)c1cc(C#N)cc(C)c1NC(=O)c1cc(Br)nn1-c1ncccc1Cl [Cyantraniliprole]
Anopheles stephensi [1]; Table B8, 6.25 ppm
  knockdown after 1 hour, Alone: 0
Anopheles stephensi [1]; Table B8, 12.5 ppm
  knockdown after 1 hour, Alone: 0
Anopheles stephensi [1]; Table B8, 25 ppm
  knockdown after 1 hour, Alone: 0
Anopheles stephensi [1]; Table B8, 50 ppm
  knockdown after 1 hour, Alone: 0
Anopheles stephensi [1]; Table B8, 100 ppm
  knockdown after 1 hour, Alone: 0
Anopheles stephensi [1]; Table B8, 200 ppm
  knockdown after 1 hour, Alone: 20

## O=c1nc(-c2cnccc2C(F)(F)F)os1 [I.5]
Aedes aegypti
  pest or weed control at 0.2 ppm: 100%
  pest or weed control at 2 ppm: 100%
  pest or weed control at 20 ppm: 100%
  pest or weed control at 200 ppm: 100%
Anopheles stephensi [2]
  pest or weed control at 0.2 ppm: 60%
  pest or weed control at 2 ppm: 100%
  pest or weed control at 20 ppm: 100%
  pest or weed control at 200 ppm: 100%

## C[Si](C)(C)CNC(=O)c1cnccc1C(F)(F)F [I.25]
Aedes aegypti
  pest or weed control at 0.2 ppm: 100%
  pest or weed control at 2 ppm: 100%
  pest or weed control at 20 ppm: 100%
  pest or weed control at 200 ppm: 100%
Anopheles stephensi [2]
  pest or weed control at 0.2 ppm: 80%
  pest or weed control at 2 ppm: 80%
  pest or weed control at 20 ppm: 100%
  pest or weed control at 200 ppm: 100%

## CCN(Cc1ccccc1)C(=O)c1cnccc1C(F)(F)F [I.15]
Aedes aegypti
  pest or weed control at 0.2 ppm: 100%
  pest or weed control at 2 ppm: 100%
  pest or weed control at 20 ppm: 100%
  pest or weed control at 200 ppm: 100%
Anopheles stephensi [2]
  pest or weed control at 0.2 ppm: 0%
  pest or weed control at 2 ppm: 0%
  pest or weed control at 20 ppm: 0%
  pest or weed control at 200 ppm: 0%

## CC(=O)CNC(=O)c1cnccc1C(F)(F)F [I.23]
Aedes aegypti
  pest or weed control at 0.2 ppm: 40%
  pest or weed control at 2 ppm: 100%
  pest or weed control at 20 ppm: 100%
  pest or weed control at 200 ppm: 100%
Anopheles stephensi [2]
  pest or weed control at 0.2 ppm: 0%
  pest or weed control at 2 ppm: 20%
  pest or weed control at 20 ppm: 40%
  pest or weed control at 200 ppm: 100%

## CC(C)CC(=O)ON(C)C(=O)c1cnccc1C(F)(F)F [I.10]
Aedes aegypti
  pest or weed control at 0.2 ppm: 100%
  pest or weed control at 2 ppm: 100%
  pest or weed control at 20 ppm: 100%
  pest or weed control at 200 ppm: 100%
Anopheles stephensi [2]
  pest or weed control at 0.2 ppm: 40%
  pest or weed control at 2 ppm: 60%
  pest or weed control at 20 ppm: 100%
  pest or weed control at 200 ppm: 100%

## COCCOC(=O)ON(C(=O)c1cnccc1C(F)(F)F)C(C)C [I.29]
Aedes aegypti
  pest or weed control at 0.2 ppm: 0%
  pest or weed control at 2 ppm: 0%
  pest or weed control at 20 ppm: 0%
  pest or weed control at 200 ppm: 100%
Anopheles stephensi [2]
  pest or weed control at 0.2 ppm: 20%
  pest or weed control at 2 ppm: 60%
  pest or weed control at 20 ppm: 100%
  pest or weed control at 200 ppm: 100%

## C=CCONC(=O)c1cnccc1C(F)(F)F [I.17]
Aedes aegypti
  pest or weed control at 0.2 ppm: 0%
  pest or weed control at 2 ppm: 0%
  pest or weed control at 20 ppm: 0%
  pest or weed control at 200 ppm: 0%
Anopheles stephensi [2]
  pest or weed control at 0.2 ppm: 0%
  pest or weed control at 2 ppm: 0%
  pest or weed control at 20 ppm: 20%
  pest or weed control at 200 ppm: 100%

## CN(C)CNC(=O)c1cnccc1C(F)(F)F [I.6]
Aedes aegypti
  pest or weed control at 0.2 ppm: 100%
  pest or weed control at 2 ppm: 100%
  pest or weed control at 20 ppm: 100%
  pest or weed control at 200 ppm: 100%
Anopheles stephensi [2]
  pest or weed control at 0.2 ppm: 0%
  pest or weed control at 2 ppm: 20%
  pest or weed control at 20 ppm: 40%
  pest or weed control at 200 ppm: 40%

## CCOC(=O)ON(C)C(=O)c1cnccc1C(F)(F)F [I.9]
Aedes aegypti
  pest or weed control at 0.2 ppm: 100%
  pest or weed control at 2 ppm: 100%
  pest or weed control at 20 ppm: 100%
  pest or weed control at 200 ppm: 100%
Anopheles stephensi [2]
  pest or weed control at 0.2 ppm: 20%
  pest or weed control at 2 ppm: 100%
  pest or weed control at 20 ppm: 100%
  pest or weed control at 200 ppm: 100%

## CCCN1CN=C(c2cnccc2C(F)(F)F)OC1=O [I.16]
Aedes aegypti
  pest or weed control at 0.2 ppm: 0%
  pest or weed control at 2 ppm: 60%
  pest or weed control at 20 ppm: 60%
  pest or weed control at 200 ppm: 100%
Anopheles stephensi [2]
  pest or weed control at 0.2 ppm: 0%
  pest or weed control at 2 ppm: 0%
  pest or weed control at 20 ppm: 0%
  pest or weed control at 200 ppm: 0%

## N/C(=N/C(=O)c1cnccc1C(F)(F)F)C1CC1 [I.19]
Aedes aegypti
  pest or weed control at 0.2 ppm: 0%
  pest or weed control at 2 ppm: 100%
  pest or weed control at 20 ppm: 100%
  pest or weed control at 200 ppm: 100%
Anopheles stephensi [2]
  pest or weed control at 0.2 ppm: 40%
  pest or weed control at 2 ppm: 60%
  pest or weed control at 20 ppm: 100%
  pest or weed control at 200 ppm: 100%

## CC(C)NOC(=O)c1cnccc1C(F)(F)F [I.12]
Aedes aegypti
  pest or weed control at 0.2 ppm: 100%
  pest or weed control at 2 ppm: 100%
  pest or weed control at 20 ppm: 100%
  pest or weed control at 200 ppm: 100%
Anopheles stephensi [2]
  pest or weed control at 0.2 ppm: 0%
  pest or weed control at 2 ppm: 80%
  pest or weed control at 20 ppm: 100%
  pest or weed control at 200 ppm: 100%

## O=C(NCc1ccc(Cl)cc1)c1cnccc1C(F)(F)F [I.2]
Aedes aegypti
  pest or weed control at 0.2 ppm: 100%
  pest or weed control at 2 ppm: 100%
  pest or weed control at 20 ppm: 100%
  pest or weed control at 200 ppm: 100%
Anopheles stephensi [2]
  pest or weed control at 0.2 ppm: 0%
  pest or weed control at 2 ppm: 60%
  pest or weed control at 20 ppm: 80%
  pest or weed control at 200 ppm: 100%

## CCOCn1c(-c2ccc(Cl)cc2)c(C#N)c(Br)c1C(F)(F)F [chlorfenapyr]
Anopheles stephensi [1]; Table B1, 0.0625 ppm alone
  24 hr mort: 0.0
  48 hr mort: 0.0
  KD: 0.0
Anopheles stephensi [1]; Table B1, 0.125 ppm alone
  24 hr mort: 0.0
  48 hr mort: 0.0
  KD: 0.0
Anopheles stephensi [1]; Table B1, 0.25 ppm alone
  24 hr mort: 0.0
  48 hr mort: 3.3
  KD: 0.0
Anopheles stephensi [1]; Table B1, 0.5 ppm alone
  24 hr mort: 0.0
  48 hr mort: 16.7
  KD: 0.0
Anopheles stephensi [1]; Table B1, 1 ppm alone
  24 hr mort: 6.7
  48 hr mort: 50.0
  KD: 0.0
Anopheles stephensi [1]; Table B1, 2 ppm alone
  24 hr mort: 40.0
  48 hr mort: 90.0
  KD: 0.0
Anopheles stephensi [1]; Table B2, 0.0625 ppm alone
  24 hr mort: 0.0
  48 hr mort: 0.0
  KD: 0.0
Anopheles stephensi [1]; Table B2, 0.125 ppm alone
  24 hr mort: 0.0
  48 hr mort: 0.0
  KD: 0.0
Anopheles stephensi [1]; Table B2, 0.25 ppm alone
  24 hr mort: 0.0
  48 hr mort: 0.0
  KD: 0.0
Anopheles stephensi [1]; Table B2, 0.5 ppm alone
  24 hr mort: 0.0
  48 hr mort: 0.0
  KD: 0.0
Anopheles stephensi [1]; Table B2, 1 ppm alone
  24 hr mort: 20.0
  48 hr mort: 40.0
  KD: 0.0
Anopheles stephensi [1]; Table B2, 2 ppm alone
  24 hr mort: 50.0
  48 hr mort: 100.0
  KD: 0.0

## CC(C#N)NC(=O)c1cnccc1C(F)(F)F (stereo not shown) [I.11]
Aedes aegypti
  pest or weed control at 0.2 ppm: 100%
  pest or weed control at 2 ppm: 100%
  pest or weed control at 20 ppm: 100%
  pest or weed control at 200 ppm: 100%

## CCN(CC)c1nc(C)cc(OP(=S)(OC)OC)n1 [pirimiphos-methyl]
Anopheles stephensi [1]; Table B3, 0.03125 ppm alone
  24 hr mort: 0.0
  48 hr mort: 0.0
  KD: 0.0
Anopheles stephensi [1]; Table B3, 0.0625 ppm alone
  24 hr mort: 0.0
  48 hr mort: 0.0
  KD: 0.0
Anopheles stephensi [1]; Table B3, 0.125 ppm alone
  24 hr mort: 0.0
  48 hr mort: 0.0
  KD: 0.0
Anopheles stephensi [1]; Table B3, 0.25 ppm alone
  24 hr mort: 50.0
  48 hr mort: 50.0
  KD: 0.0
Anopheles stephensi [1]; Table B3, 0.5 ppm alone
  24 hr mort: 100.0
  48 hr mort: 100.0
  KD: 0.0
Anopheles stephensi [1]; Table B3, 1 ppm alone
  24 hr mort: 100.0
  48 hr mort: 100.0
  KD: 10.0
Anopheles stephensi [1]; Table B10, 0.0625 ppm
  knockdown after 1 hour, Alone: 0.0
Anopheles stephensi [1]; Table B10, 0.125 ppm
  knockdown after 1 hour, Alone: 0.0
Anopheles stephensi [1]; Table B10, 0.25 ppm
  knockdown after 1 hour, Alone: 50.0
Anopheles stephensi [1]; Table B10, 0.5 ppm
  knockdown after 1 hour, Alone: 100.0
Anopheles stephensi [1]; Table B10, 1 ppm
  knockdown after 1 hour, Alone: 100.0

## CC1(C)[C@H](C(=O)O[C@H](C#N)c2cccc(Oc3ccccc3)c2)[C@@H]1/C=C(\Cl)C(F)(F)F (racemic) [Lambda-cyhalothrin]
Anopheles stephensi [1]; Table B5, 0.025 ppm
  knockdown after 1 hour, Alone: 0
Anopheles stephensi [1]; Table B5, 0.05 ppm
  knockdown after 1 hour, Alone: 0
Anopheles stephensi [1]; Table B5, 0.1 ppm
  knockdown after 1 hour, Alone: 0
Anopheles stephensi [1]; Table B5, 0.2 ppm
  knockdown after 1 hour, Alone: 40
